According to ChEMBL document CHEMBL1275384, “Structure-activity relationships of benzimidazole-based selective inhibitors of the mitogen activated kinase-5 signaling pathway” (2010):

Assays:
A549 = test: Cytotoxicity against human A549 cells at 10 uM assessed as cell growth relative to control; type: functional; conditions: read-out: Activity
NCI-H522 = test: Cytotoxicity against human NCI-H522 cells at 10 uM assessed as cell growth relative to control; type: functional; conditions: read-out: Activity
OVCAR-3 = test: Cytotoxicity against human OVCAR-3 cells at 10 uM assessed as cell growth relative to control; type: functional; conditions: read-out: Activity
SK-OV-3 = test: Cytotoxicity against human SKOV3 cells at 10 uM assessed as cell growth relative to control; type: functional; conditions: read-out: Activity
BT-549 = test: Cytotoxicity against human BT549 cells at 10 uM assessed as cell growth relative to control; type: functional; conditions: read-out: Activity
OVCAR-8 = test: Cytotoxicity against human OVCAR8 cells at 10 uM assessed as cell growth relative to control; type: functional; conditions: read-out: Activity
SNB-75 = test: Cytotoxicity against human SNB75 cells at 10 uM assessed as cell growth relative to control; type: functional; conditions: read-out: Activity
ACHN = test: Cytotoxicity against human ACHN cells at 10 uM assessed as cell growth relative to control; type: functional; conditions: read-out: Activity
UO-31 = test: Cytotoxicity against human UO31 cells at 10 uM assessed as cell growth relative to control; type: functional; conditions: read-out: Activity
OVCAR-5 = test: Cytotoxicity against human OVCAR5 cells at 10 uM assessed as cell growth relative to control; type: functional; conditions: read-out: Activity
COLO 205 = test: Cytotoxicity against human COLO205 cells at 10 uM assessed as cell growth relative to control; type: functional; conditions: read-out: Activity
LOX IMVI = test: Cytotoxicity against human LOXIMVI cells at 10 uM assessed as cell growth relative to control; type: functional; conditions: read-out: Activity
UACC-62 = test: Cytotoxicity against human UACC62 cells at 10 uM assessed as cell growth relative to control; type: functional; conditions: read-out: Activity
NCI-H23 = test: Cytotoxicity against human NCI-H23 cells at 10 uM assessed as cell growth relative to control; type: functional; conditions: read-out: Activity
SF-539 = test: Cytotoxicity against human SF539 cells at 10 uM assessed as cell growth relative to control; type: functional; conditions: read-out: Activity
UACC-257 = test: Cytotoxicity against human UACC257 cells at 10 uM assessed as cell growth relative to control; type: functional; conditions: read-out: Activity
HT-29 = test: Cytotoxicity against human HT-29 cells at 10 uM assessed as cell growth relative to control; type: functional; conditions: read-out: Activity
T47D = test: Cytotoxicity against human T47D cells at 10 uM assessed as cell growth relative to control; type: functional; conditions: read-out: Activity
RXF 393 = test: Cytotoxicity against human RXF393 cells at 10 uM assessed as cell growth relative to control; type: functional; conditions: read-out: Activity
KM12 = test: Cytotoxicity against human KM12 cells at 10 uM assessed as cell growth relative to control; type: functional; conditions: read-out: Activity
[1] = Cytotoxicity against human Hs 578T cells at 10 uM assessed as cell growth relative to control; type: functional; conditions: read-out: Activity
HOP-92 = test: Cytotoxicity against human HOP92 cells at 10 uM assessed as cell growth relative to control; type: functional; conditions: read-out: Activity
M14 = test: Cytotoxicity against human M14 cells at 10 uM assessed as cell growth relative to control; type: functional; conditions: read-out: Activity
U-251 = test: Cytotoxicity against human U251 cells at 10 uM assessed as cell growth relative to control; type: functional; conditions: read-out: Activity
SK-MEL-5 = test: Cytotoxicity against human SK-MEL-5 cells at 10 uM assessed as cell growth relative to control; type: functional; conditions: read-out: Activity
MDA-MB-435 = test: Cytotoxicity against human MDA-MB-435 cells at 10 uM assessed as cell growth relative to control; type: functional; conditions: read-out: Activity
HCT-116 = test: Cytotoxicity against human HCT116 cells at 10 uM assessed as cell growth relative to control; type: functional; conditions: read-out: Activity
[2] = molecular target: T1, Dual specificity mitogen-activated protein kinase kinase 5 (Homo sapiens) (UniProt Q13163); conditions: HEK293, at 10 µM;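 note: MEK5 activity stimulated by EGF, read out as phospho-ERK5 on Western blot after 1 h treatment, expressed relative to control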
T1 sequence (whole entry): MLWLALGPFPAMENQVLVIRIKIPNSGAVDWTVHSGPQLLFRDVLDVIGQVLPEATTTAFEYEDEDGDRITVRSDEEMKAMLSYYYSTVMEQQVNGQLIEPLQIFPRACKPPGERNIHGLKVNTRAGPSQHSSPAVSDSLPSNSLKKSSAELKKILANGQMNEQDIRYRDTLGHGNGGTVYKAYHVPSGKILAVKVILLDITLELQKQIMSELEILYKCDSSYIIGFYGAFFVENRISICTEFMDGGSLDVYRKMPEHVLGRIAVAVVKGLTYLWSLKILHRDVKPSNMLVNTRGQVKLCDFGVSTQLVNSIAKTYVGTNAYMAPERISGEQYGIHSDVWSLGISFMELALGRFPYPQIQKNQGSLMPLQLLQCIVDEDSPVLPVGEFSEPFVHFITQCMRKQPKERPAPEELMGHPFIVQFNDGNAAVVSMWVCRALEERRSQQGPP
Description: Inhibition of EGF-induced MEK5 activity in HEK293 cells assessed as phosphorylated ERK5 level at 10 uM after 1 hr by Western blotting relative to control

SK-MEL-28 = test: Cytotoxicity against human SK-MEL-28 cells at 10 uM assessed as cell growth relative to control; type: functional; conditions: read-out: Activity
CAKI-1 = test: Cytotoxicity against human Caki1 cells at 10 uM assessed as cell growth relative to control; type: functional; conditions: read-out: Activity
NCI-H226 = test: Cytotoxicity against human NCI-H226 cells at 10 uM assessed as cell growth relative to control; type: functional; conditions: read-out: Activity
NCI-H322M = test: Cytotoxicity against human NCI-H322M cells at 10 uM assessed as cell growth relative to control; type: functional; conditions: read-out: Activity
SW-620 = test: Cytotoxicity against human SW620 cells at 10 uM assessed as cell growth relative to control; type: functional; conditions: read-out: Activity
SK-MEL-2 = test: Cytotoxicity against human SK-MEL-2 cells at 10 uM assessed as cell growth relative to control; type: functional; conditions: read-out: Activity
SR = test: Cytotoxicity against human SR cells at 10 uM assessed as cell growth relative to control; type: functional; conditions: read-out: Activity
SF-268 = test: Cytotoxicity against human SF268 cells at 10 uM assessed as cell growth relative to control; type: functional; conditions: read-out: Activity
HL-60(TB) = test: Cytotoxicity against human HL-60(TB) cells at 10 uM assessed as cell growth relative to control; type: functional; conditions: read-out: Activity
MCF7 = test: Cytotoxicity against human MCF7 cells at 10 uM assessed as cell growth relative to control; type: functional; conditions: read-out: Activity
OVCAR-4 = test: Cytotoxicity against human OVCAR4 cells at 10 uM assessed as cell growth relative to control; type: functional; conditions: read-out: Activity
MOLT-4 = test: Cytotoxicity against human MOLT4 cells at 10 uM assessed as cell growth relative to control; type: functional; conditions: read-out: Activity
TK-10 = test: Cytotoxicity against human TK10 cells at 10 uM assessed as cell growth relative to control; type: functional; conditions: read-out: Activity
SNB-19 = test: Cytotoxicity against human SNB19 cells at 10 uM assessed as cell growth relative to control; type: functional; conditions: read-out: Activity
K562 = test: Cytotoxicity against human K562 cells at 10 uM assessed as cell growth relative to control; type: functional; conditions: read-out: Activity
Malme-3M = test: Cytotoxicity against human MALME-3M cells at 10 uM assessed as cell growth relative to control; type: functional; conditions: read-out: Activity
CCRF-CEM = test: Cytotoxicity against human CCRF-CEM cells at 10 uM assessed as cell growth relative to control; type: functional; conditions: read-out: Activity
SN12C = test: Cytotoxicity against human SN12C cells at 10 uM assessed as cell growth relative to control; type: functional; conditions: read-out: Activity

With `COc1cc(NCc2ccccc2)c2ncn(C(C)C)c2c1` the growth at 10 µM (A549) was 110%, the growth at 10 µM (NCI-H522) was 87% and the growth at 10 µM (OVCAR-3) was 104%. For the same molecule, the growth at 10 µM (SK-OV-3) was 110%, the growth at 10 µM (BT-549) was 55.6% and the growth at 10 µM (OVCAR-8) was 98.7%. The growth at 10 µM (SNB-75) was 92.3%, the growth at 10 µM (ACHN) was 106% and the growth at 10 µM (UO-31) was 83.2%. It also gave a growth at 10 µM (OVCAR-5) of 97.2%, a growth at 10 µM (COLO 205) of 118% and a growth at 10 µM (LOX IMVI) of 115%. The growth at 10 µM (UACC-62) was 97.3%, the growth at 10 µM (NCI-H23) was 91.1% and the growth at 10 µM (SF-539) was 96.2%. It also gave a growth at 10 µM (UACC-257) of 106%, a growth at 10 µM (HT-29) of 109% and a growth at 10 µM (T47D) of 80.1%. It also gave a growth at 10 µM (RXF 393) of 91.2%, a growth at 10 µM (KM12) of 104% and a growth at 10 µM [1] of 174%. It also gave a growth at 10 µM (HOP-92) of 64.5%, a growth at 10 µM (M14) of 108% and a growth at 10 µM (U-251) of 103%. For the same molecule, the growth at 10 µM (SK-MEL-5) was 122%, the growth at 10 µM (MDA-MB-435) was 122% and the growth at 10 µM (HCT-116) was 103%. It also gave an inhibition [2] of 85%, a growth at 10 µM (SK-MEL-28) of 125% and a growth at 10 µM (CAKI-1) of 97.2%. For the same molecule, the growth at 10 µM (NCI-H226) was 97.1%, the growth at 10 µM (NCI-H322M) was 115% and the growth at 10 µM (SW-620) was 146%. It also gave a growth at 10 µM (SK-MEL-2) of 91.6%, a growth at 10 µM (SR) of 51.7% and a growth at 10 µM (SF-268) of 125%. For the same molecule, the growth at 10 µM (HL-60(TB)) was 50.3%, the growth at 10 µM (MCF7) was 5.8% and the growth at 10 µM (OVCAR-4) was 50.6%. The growth at 10 µM (MOLT-4) was 78.7%, the growth at 10 µM (TK-10) was 136% and the growth at 10 µM (SNB-19) was 90.7%. For the same molecule, the growth at 10 µM (K562) was 64.2%, the growth at 10 µM (Malme-3M) was 49.2% and the growth at 10 µM (CCRF-CEM) was 93.9%. For the same molecule, the growth at 10 µM (SN12C) was 104%.

For `COCCCOc1cc(NCc2ccccc2)c2ncn(C(C)C)c2c1`, the growth at 10 µM (A549) was 94%, the growth at 10 µM (NCI-H522) was 127% and the growth at 10 µM (OVCAR-3) was 84.9%. It also gave a growth at 10 µM (SK-OV-3) of 101%, a growth at 10 µM (BT-549) of 90.1% and a growth at 10 µM (OVCAR-8) of 99.3%. The growth at 10 µM (SNB-75) was 92%, the growth at 10 µM (ACHN) was 95.3% and the growth at 10 µM (UO-31) was 79.9%. The growth at 10 µM (OVCAR-5) was 91.5%, the growth at 10 µM (COLO 205) was 100% and the growth at 10 µM (LOX IMVI) was 94.5%. The growth at 10 µM (UACC-62) was 91.9%, the growth at 10 µM (NCI-H23) was 109% and the growth at 10 µM (SF-539) was 93.5%. For the same molecule, the growth at 10 µM (UACC-257) was 101%, the growth at 10 µM (HT-29) was 109% and the growth at 10 µM (T47D) was 91.9%. It also gave a growth at 10 µM (RXF 393) of 94.3%, a growth at 10 µM (KM12) of 100% and a growth at 10 µM [1] of 84.4%. It also gave a growth at 10 µM (HOP-92) of 90.9%, a growth at 10 µM (M14) of 104% and a growth at 10 µM (U-251) of 95.6%. For the same molecule, the growth at 10 µM (SK-MEL-5) was 95.8%, the growth at 10 µM (MDA-MB-435) was 110% and the growth at 10 µM (HCT-116) was 100%. The inhibition [2] was 51%, the growth at 10 µM (SK-MEL-28) was 115% and the growth at 10 µM (CAKI-1) was 81.3%. The growth at 10 µM (NCI-H226) was 91.6%, the growth at 10 µM (NCI-H322M) was 104% and the growth at 10 µM (SW-620) was 101%. The growth at 10 µM (SK-MEL-2) was 92.7%, the growth at 10 µM (SR) was 103% and the growth at 10 µM (SF-268) was 96.7%. It also gave a growth at 10 µM (HL-60(TB)) of 100%, a growth at 10 µM (MCF7) of 93.2% and a growth at 10 µM (OVCAR-4) of 87.8%. For the same molecule, the growth at 10 µM (MOLT-4) was 88.2%, the growth at 10 µM (TK-10) was 109% and the growth at 10 µM (SNB-19) was 90.3%. For the same molecule, the growth at 10 µM (K562) was 90.9%, the growth at 10 µM (Malme-3M) was 113% and the growth at 10 µM (CCRF-CEM) was 86.8%. It also gave a growth at 10 µM (SN12C) of 90.8%.
